Reference: patent US9422286B2, “Metal-binding bifunctional compounds as diagnostic agents for Alzheimer's disease” (Washington University, priority 2014, dated 2016)

Key:
ThT-bound Aβ40 fibrils = biological target: T1, ThT-bound Aβ40 fibrils (Homo sapiens, UniProt P05067); assay: ThT fluorescence competition assay; assay type: binding; conditions: [Aβ]=2 μM, [ThT]=1 μM
T1 construct: purchased Keck Biotechnology Resource Laboratory, Yale University
Description: (§1) Aβ monomeric films were prepared by dissolving commercial Aβ42 (or Aβ40 for Aβ fibril binding studies) peptide (Keck Biotechnology Resource Laboratory, Yale University) in hexafluoroisopropanol (HFIP) (1 mM) and incubating for 1 hour at room temperature (Klein, W. L. Neurochemistry International 2002, 41, 345). The solution was then aliquoted out and evaporated overnight. The aliquots were vacuum centrifuged and the resulting monomeric films stored at −80° C. Aβ fibrils were generated by dissolving monomeric Aβ films in dimethyl sulfoxide (DMSO), diluting into the appropriate buffer, and incubating for 24 hours at 37° C. with continuous agitation (final DMSO concentration was <2%). […]
(§2) All fluorescence measurements were performed using a SpectraMax M2e plate reader (Molecular Devices). For ThT fluorescence studies, samples were diluted to a final concentration of 2.5 μM Aβ in phosphate buffered saline (PBS) solution containing 10 μM ThT and the fluorescence measured at 485 nm (λex=435 nm). For Aβ fibril binding studies, a 5 μM Aβ fibril solution was titrated with small amounts of compound and their fluorescence intensity measured (λex/λem=350/450 nm). For ThT competition assays, a 2 μM Aβ fibril solution with 1 μM ThT was titrated with small amounts of compound and the ThT fluorescence measured (λex/λem=435/485 nm). […]

Aβ40 fibrils = biological target: T2, Aβ40 fibrils (Homo sapiens, UniProt P05067); assay: Direct fluorescence assay with Aβ fibrils; assay type: binding; conditions: [Aβ]=5 μM, λex/λem=350/450 nm; read-out: Kd, Aβ fibrils, compound fluorescence
T2 construct: purchased Keck Biotechnology Resource Laboratory, Yale University
T2 sequence (P05067 672-711 limits assumed): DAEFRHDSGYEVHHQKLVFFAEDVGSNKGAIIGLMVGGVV
Description: as §1, §2

[1] = UV-vis pH titration, acidity constant determination; assay type: physicochemical; conditions: 50 μM, 0.1 M NaCl, room temperature, methanol-water (methanol ≤20% v:v); for [HL1]/[L1]^− (pKa4): assigned to the phenol group
Description: UV-vis pH titrations were employed to determine the acidity constants of compounds L3-L7 and the stability constants of their Cu^2+ complexes. For acidity constants, solutions of the bifunctional compound (50 μM, 0.1 M NaCl, pH 3) were titrated with small aliquots of 0.1 M NaOH at room temperature. At least 30 UV-vis spectra were collected in the pH 3-11 range (FIG. 1).

[2] = pH-spectrophotometric titration, stability constants of Cu^2+ complexes; assay type: physicochemical; conditions: for Calculated pCu (−log[Cu]free): [Cu^2+]tot = [chelator]tot = 50 μM
Description: Similar spectrophotometric titrations were performed to determine the stability constants and solution speciation of Cu^2+ with L3-L6. Stability constants were determined by titrating solutions of the compounds and equimolar amounts of Cu(ClO4)2.6H2O (50 μM or 0.5 mM) with small aliquots of 0.1 M NaOH at room temperature. At least 30 UV-vis spectra were collected in the pH 3-11 range (FIG. 2). The acidity and stability constants were calculated using the HypSpec computer program (Protonic Software, UK, Gans, P.; Sabatini, A.; Vacca, A. Ann. Chim. 1999, 45). Speciation plots of the compounds and their metal complexes were calculated using the program HySS2009 (Protonic Software, UK) (Alderighi, L. Coord. Chem. Rev. 1999, 184, 311). […] The data obtained for the Cu complex of compound L7 could not be fit satisfactorily using a reasonable model, most likely due to a multinuclear complex formation, as observed by X-ray crystallography.

[3] = Biodistribution and brain uptake of ^64Cu-radiolabeled compounds; assay type: in vivo, wild type CD-1 female mice; conditions: ^64Cu complexes, tail vein injection, 2, 60 and 240 min
Description: Biodistribution studies were conducted in wild type CD-1 female mice (Charles River Laboratories) of age 5-7 weeks weighing 25.4±1.4 g. The injection dose was prepared by diluting to a 90% saline solution. The uptake of compounds was evaluated in mice (L3 and L6, n=7; L4, L5, and L7, n=3) that were injected via the tail vein with 0.22-0.37 MBq (6-10 μCi) of each compound per animal in 100 μL saline. After each time points (2, 60, and 240 min), mice were anesthetized with 1-2% isoflurane and sacrificed by cervical dislocation. Brain, blood, kidney, liver and other organs of interest were harvested and amount of radioactivity in each organ was counted on a gamma counter containing a NaI crystal. The data was corrected for radioactive decay and percent injected dose per gram (% ID/g) of tissue was calculated. All samples were calibrated against a known standard. Quantitative data were processed by Prism 6 (GraphPad Software, v 6.03, La Jolla, Calif.) and expressed as Mean±SEM. Statistical analysis performed using one-way analysis of variance and Student's t test. Differences at the 95% confidence level (p<0.05) were considered statistically significant.

Aβ fibrils = conditions: non-Cu binding blocking agent; cited from earlier work
Aβ deposits = conditions: cited from earlier work
[4] = Cu^2+ complex, equimolar Cu(ClO4)2, room temperature

T1 sequence (P05067 672-711 limits assumed): as above

Row | [H2L1]^+/[HL1] (pKa3) [1] | [H3L1]^+2/[H2L1]^+ (pKa2) [1] | [H4L1]^3+/[H3L1]^2+ (pKa1) [1] | [HL1]/[L1]^− (pKa4) [1] | Stability constant, M^2+ + L^− = [ML]^+ [2, 4] | Stability constant, M^2+ + HL = [MHL]^+2 [2, 4] | Compound | Brain uptake and wash out [3] | further results
1 | – | – | – | – | – | – | COc1ccc(/C=C/c2ccc(O)cc2)cc1OC [L8] | – | Ki (ThT-bound Aβ40 fibrils): 66 ± 20 nM
2 | 8.27 | 6.35 | 3.78 | 9.34 | 31.96(60) | – | COc1cc(-c2nc3ccccc3s2)cc(CN2CCN(C)CCN(C)CC2)c1O [L3] | – | Kd (Aβ40 fibrils): ~575 nM; Stability constant, [ML(H2O)]^+1 = [ML(OH)] + H^+ [2, 4]: 10.14(60)
3 | 8.71 | 6.93 | 4.57 | 9.98 | 30.098 | 3.012 | COc1cc(-c2nc3ccccc3s2)cc(CN2Cc3cccc(n3)CN(CC(=O)O)Cc3cccc(n3)C2)c1O [L6] | higher initial brain uptake at 2 min, followed by rapid wash out | Ki (ThT-bound Aβ40 fibrils): 325 ± 40 nM
4 | – | – | – | – | – | – | Oc1cccc2scnc12 [BTZ, 4-hydroxybenzothiazole] | – | Affinity for Aβ fibrils (Aβ fibrils): nanomolar affinity
5 | 8.02 | 5.61 | 4.80 | 9.60 | 27.224 | 4.008 | COc1cc(-c2nc3ccccc3s2)cc(CN2Cc3cccc(n3)CN(C)Cc3cccc(n3)C2)c1O [L5] | higher initial brain uptake at 2 min, followed by rapid wash out | –
6 | – | – | – | – | – | – | O=C(O)CN(CCN(CC(=O)O)CC(=O)O)CCN(CC(=O)O)CC(=O)O [DTPA, diethylene triamine pentaacetic acid, reference compound] | – | Calculated pCu (−log[Cu]free) ([2]; pH 6.6): 9.3; Calculated pCu (−log[Cu]free) ([2]; pH 7.4): 10.1
7 | 9.34 | 7.84 | 5.14 | 10.14 | 27.093 | 2.881 | COc1cc(-c2nc3ccccc3s2)cc(CN2Cc3cccc(n3)CNCc3cccc(n3)C2)c1O [L4] | higher initial brain uptake at 2 min, followed by rapid wash out | –
8 | 8.22 | 7.39 | 4.35 | 10.65 | – | – | COc1cc(-c2nc3ccccc3s2)cc(CN2Cc3cccc(n3)CN(Cc3cc(-c4nc5ccccc5s4)cc(OC)c3O)Cc3cccc(n3)C2)c1O [L7] | higher initial brain uptake at 2 min, followed by rapid wash out | –
9 | – | – | – | – | – | – | [11CH3]Nc1ccc(-c2nc3ccc(O)cc3s2)cc1 [^11C-PiB] | – | Binding to soluble amyloid, NFTs, Lewy bodies (Aβ deposits; at nanomolar concentrations): does not bind; Binding to Aβ deposits (Aβ deposits; in vitro autoradiography): binds to aggregated, fibrillar Aβ deposits
